From PMC2643072 (Journal of medicinal chemistry, 2008)

Molecular target: T1, porcine erythrocyte μ-calpain (Sus scrofa, UniProt P35750)
T1 sequence (P35750 1-714): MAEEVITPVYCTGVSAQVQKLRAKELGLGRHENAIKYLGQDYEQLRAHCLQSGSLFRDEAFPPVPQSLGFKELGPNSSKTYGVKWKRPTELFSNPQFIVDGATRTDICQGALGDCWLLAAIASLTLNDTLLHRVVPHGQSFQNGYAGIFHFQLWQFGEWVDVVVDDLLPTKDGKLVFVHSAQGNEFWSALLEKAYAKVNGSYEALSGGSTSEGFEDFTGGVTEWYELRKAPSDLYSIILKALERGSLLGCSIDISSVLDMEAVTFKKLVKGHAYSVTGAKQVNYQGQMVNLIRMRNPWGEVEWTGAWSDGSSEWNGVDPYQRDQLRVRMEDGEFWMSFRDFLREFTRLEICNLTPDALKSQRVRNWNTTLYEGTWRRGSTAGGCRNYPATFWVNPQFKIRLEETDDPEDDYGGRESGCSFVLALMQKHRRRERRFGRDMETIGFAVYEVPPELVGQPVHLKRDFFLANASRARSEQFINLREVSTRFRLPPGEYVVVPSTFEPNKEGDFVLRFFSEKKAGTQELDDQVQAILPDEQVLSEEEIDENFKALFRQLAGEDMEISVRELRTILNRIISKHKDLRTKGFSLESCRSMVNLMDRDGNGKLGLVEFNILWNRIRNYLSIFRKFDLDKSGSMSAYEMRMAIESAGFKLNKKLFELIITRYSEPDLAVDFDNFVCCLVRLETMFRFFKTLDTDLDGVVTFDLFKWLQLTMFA
T1 sequence (P04574 1-266 partner): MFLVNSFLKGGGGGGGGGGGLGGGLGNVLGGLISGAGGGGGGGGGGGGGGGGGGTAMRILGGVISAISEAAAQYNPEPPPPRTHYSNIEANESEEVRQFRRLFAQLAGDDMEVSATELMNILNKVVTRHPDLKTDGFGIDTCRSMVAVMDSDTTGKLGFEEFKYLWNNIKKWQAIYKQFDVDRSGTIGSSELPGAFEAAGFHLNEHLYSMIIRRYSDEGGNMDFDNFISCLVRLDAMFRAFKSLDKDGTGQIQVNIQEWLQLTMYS
Assay: μ-Calpain inhibition assay
Format: biochemical

CC(C)C[C@H](NC(=O)CC(c1ccccc1)c1ccccc1)C(=O)NC(Cc1ccccc1)C(=O)C(=O)O (stereo partly drawn) [Compound 2d, N-(3,3-Diphenylpropionyl)-L-leucyl-2-oxo-3(R,S)-amino-4-phenylbutanoic acid]
μ-calpain inhibitory potency relative to 2c (diphenylpropionyl (2d) vs diphenylacetyl (2c) N-terminal cap): about twice as potent

CC(C)C[C@H](NC(=O)CC1c2ccccc2-c2ccccc21)C(=O)NC(Cc1ccccc1)C(=O)C(=O)O (stereo partly drawn) [Compound 2e, N-(9-Fluoreneacetyl)-L-leucyl-2-oxo-3(R,S)-amino-4-phenylbutanoic acid]
fold more potent than 2a and 2b (μ-calpain inhibition) (planar fluorene cap vs cyclohexyl (2a) and adamantyl (2b) caps): over 5 fold
